# Experiments:
# Conditions in all cases: 1 µM; inhibitor
# [1] = molecular target: INSRR (Homo sapiens, UniProt P14616)
# [2] = molecular target: FRK (Homo sapiens, UniProt P42685)
# [3] = molecular target: COT (Homo sapiens, UniProt P41279)
# [4] = molecular target: FYN (Homo sapiens, UniProt P06241)
# [5] = molecular target: PIM3 (Homo sapiens, UniProt Q86V86)
# [6] = molecular target: PKCb (Homo sapiens, UniProt P05771)
# [7] = molecular target: EPHA5 (Homo sapiens, UniProt P54756)
# [8] = molecular target: SIK1 (Homo sapiens, UniProt P57059)
# [9] = molecular target: PIM1 (Homo sapiens, UniProt P11309)
# Sequence of PIM1 (P11309 whole entry): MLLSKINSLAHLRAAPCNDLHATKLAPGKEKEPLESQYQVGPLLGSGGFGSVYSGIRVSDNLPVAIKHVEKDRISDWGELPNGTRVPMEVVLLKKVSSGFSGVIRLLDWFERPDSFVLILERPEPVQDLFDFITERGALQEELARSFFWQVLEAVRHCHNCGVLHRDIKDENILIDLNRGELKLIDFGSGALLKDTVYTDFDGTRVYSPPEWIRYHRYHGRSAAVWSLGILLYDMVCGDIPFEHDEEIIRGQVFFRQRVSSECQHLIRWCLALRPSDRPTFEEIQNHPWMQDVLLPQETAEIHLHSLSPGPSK
# [10] = molecular target: ERK5 (Homo sapiens, UniProt Q13164)
# [11] = molecular target: PKCd (Homo sapiens, UniProt Q05655)
# Sequence of PKCd (Q05655 whole entry): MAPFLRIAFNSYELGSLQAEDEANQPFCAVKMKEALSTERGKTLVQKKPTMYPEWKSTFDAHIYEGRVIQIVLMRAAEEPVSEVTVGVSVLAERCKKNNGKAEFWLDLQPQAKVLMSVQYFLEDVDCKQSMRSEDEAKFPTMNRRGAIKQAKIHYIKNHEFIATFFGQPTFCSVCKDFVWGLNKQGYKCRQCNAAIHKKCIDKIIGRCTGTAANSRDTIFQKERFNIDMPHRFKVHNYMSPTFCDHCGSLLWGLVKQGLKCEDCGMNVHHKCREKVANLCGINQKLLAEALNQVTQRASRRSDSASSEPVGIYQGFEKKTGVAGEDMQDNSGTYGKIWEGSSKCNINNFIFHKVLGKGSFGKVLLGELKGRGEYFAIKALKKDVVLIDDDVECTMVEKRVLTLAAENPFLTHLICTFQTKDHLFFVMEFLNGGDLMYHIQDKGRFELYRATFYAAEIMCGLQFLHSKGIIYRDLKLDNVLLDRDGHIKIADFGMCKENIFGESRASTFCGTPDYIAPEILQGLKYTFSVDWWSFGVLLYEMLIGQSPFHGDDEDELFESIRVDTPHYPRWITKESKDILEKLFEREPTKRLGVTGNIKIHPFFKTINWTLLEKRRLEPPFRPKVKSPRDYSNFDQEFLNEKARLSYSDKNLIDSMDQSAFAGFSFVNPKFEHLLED
# [12] = molecular target: CHK2 (Homo sapiens, UniProt O96017)
# Sequence of CHK2 (O96017 whole entry): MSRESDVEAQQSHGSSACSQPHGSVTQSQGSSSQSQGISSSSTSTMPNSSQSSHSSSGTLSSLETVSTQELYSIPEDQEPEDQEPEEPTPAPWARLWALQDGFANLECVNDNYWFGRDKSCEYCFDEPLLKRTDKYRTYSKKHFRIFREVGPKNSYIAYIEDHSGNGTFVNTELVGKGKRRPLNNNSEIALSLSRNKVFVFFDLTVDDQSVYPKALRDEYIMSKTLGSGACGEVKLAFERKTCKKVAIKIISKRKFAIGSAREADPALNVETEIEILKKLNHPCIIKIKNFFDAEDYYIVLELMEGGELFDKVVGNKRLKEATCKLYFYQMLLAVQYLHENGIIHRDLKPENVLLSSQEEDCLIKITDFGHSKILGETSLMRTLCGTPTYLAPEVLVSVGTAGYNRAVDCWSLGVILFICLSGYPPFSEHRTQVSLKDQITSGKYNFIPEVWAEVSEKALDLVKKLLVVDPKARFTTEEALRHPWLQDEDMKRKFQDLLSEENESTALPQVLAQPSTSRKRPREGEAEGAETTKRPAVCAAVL
# [13] = molecular target: NEK3 (Homo sapiens, UniProt P51956)
# [14] = molecular target: MYLK2 (Homo sapiens, UniProt Q9H1R3)
# [15] = molecular target: NDR2 (Homo sapiens, UniProt Q9Y2H1)
# [16] = molecular target: MEK1 (Homo sapiens, UniProt Q02750)
# Sequence of MEK1 (Q02750 whole entry): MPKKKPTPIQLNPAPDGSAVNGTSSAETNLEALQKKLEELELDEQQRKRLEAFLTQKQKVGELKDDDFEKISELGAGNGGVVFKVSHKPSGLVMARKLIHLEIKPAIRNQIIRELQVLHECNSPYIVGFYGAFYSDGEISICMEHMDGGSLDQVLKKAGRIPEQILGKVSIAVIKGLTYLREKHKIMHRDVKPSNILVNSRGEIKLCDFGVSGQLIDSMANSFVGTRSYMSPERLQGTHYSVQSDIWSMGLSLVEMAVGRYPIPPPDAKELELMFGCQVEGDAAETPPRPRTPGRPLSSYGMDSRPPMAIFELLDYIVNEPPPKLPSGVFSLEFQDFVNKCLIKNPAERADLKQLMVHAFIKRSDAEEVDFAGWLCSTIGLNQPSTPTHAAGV
# [17] = molecular target: SRPK2 (Homo sapiens, UniProt P78362)
# [18] = molecular target: AurA (Homo sapiens, UniProt O14965)
# [19] = molecular target: TGFBR2 (Homo sapiens, UniProt P37173)
# [20] = molecular target: ITK (Homo sapiens, UniProt Q08881)
# Sequence of ITK (Q08881 whole entry): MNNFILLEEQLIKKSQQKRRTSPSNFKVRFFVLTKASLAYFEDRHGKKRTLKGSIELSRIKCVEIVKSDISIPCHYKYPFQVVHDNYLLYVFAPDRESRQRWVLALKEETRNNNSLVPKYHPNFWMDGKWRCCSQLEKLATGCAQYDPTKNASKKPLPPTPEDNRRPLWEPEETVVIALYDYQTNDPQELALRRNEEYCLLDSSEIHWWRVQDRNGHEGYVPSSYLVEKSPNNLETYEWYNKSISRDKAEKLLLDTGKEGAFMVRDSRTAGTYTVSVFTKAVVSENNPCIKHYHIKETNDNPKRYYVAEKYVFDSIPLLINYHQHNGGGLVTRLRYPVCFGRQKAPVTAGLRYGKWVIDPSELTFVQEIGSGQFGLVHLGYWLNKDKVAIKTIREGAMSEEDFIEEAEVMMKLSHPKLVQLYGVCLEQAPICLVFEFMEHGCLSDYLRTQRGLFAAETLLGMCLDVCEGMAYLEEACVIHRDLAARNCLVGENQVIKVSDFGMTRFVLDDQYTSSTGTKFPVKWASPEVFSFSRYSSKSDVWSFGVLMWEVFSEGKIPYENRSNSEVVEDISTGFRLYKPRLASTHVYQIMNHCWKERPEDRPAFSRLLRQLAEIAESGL
# [21] = molecular target: BRK (Homo sapiens, UniProt Q13882)
# [22] = molecular target: ROS (Homo sapiens, UniProt P08922)
# [23] = molecular target: NEK1 (Homo sapiens, UniProt Q96PY6)
# [24] = molecular target: ULK2 (Homo sapiens, UniProt Q8IYT8)
# [25] = molecular target: NEK11 (Homo sapiens, UniProt Q8NG66)
# [26] = molecular target: CDK1/CycB1 (Homo sapiens, UniProt P06493)
# [27] = molecular target: HIPK3 (Homo sapiens, UniProt Q9H422)
# Sequence of HIPK3 (Q9H422 whole entry): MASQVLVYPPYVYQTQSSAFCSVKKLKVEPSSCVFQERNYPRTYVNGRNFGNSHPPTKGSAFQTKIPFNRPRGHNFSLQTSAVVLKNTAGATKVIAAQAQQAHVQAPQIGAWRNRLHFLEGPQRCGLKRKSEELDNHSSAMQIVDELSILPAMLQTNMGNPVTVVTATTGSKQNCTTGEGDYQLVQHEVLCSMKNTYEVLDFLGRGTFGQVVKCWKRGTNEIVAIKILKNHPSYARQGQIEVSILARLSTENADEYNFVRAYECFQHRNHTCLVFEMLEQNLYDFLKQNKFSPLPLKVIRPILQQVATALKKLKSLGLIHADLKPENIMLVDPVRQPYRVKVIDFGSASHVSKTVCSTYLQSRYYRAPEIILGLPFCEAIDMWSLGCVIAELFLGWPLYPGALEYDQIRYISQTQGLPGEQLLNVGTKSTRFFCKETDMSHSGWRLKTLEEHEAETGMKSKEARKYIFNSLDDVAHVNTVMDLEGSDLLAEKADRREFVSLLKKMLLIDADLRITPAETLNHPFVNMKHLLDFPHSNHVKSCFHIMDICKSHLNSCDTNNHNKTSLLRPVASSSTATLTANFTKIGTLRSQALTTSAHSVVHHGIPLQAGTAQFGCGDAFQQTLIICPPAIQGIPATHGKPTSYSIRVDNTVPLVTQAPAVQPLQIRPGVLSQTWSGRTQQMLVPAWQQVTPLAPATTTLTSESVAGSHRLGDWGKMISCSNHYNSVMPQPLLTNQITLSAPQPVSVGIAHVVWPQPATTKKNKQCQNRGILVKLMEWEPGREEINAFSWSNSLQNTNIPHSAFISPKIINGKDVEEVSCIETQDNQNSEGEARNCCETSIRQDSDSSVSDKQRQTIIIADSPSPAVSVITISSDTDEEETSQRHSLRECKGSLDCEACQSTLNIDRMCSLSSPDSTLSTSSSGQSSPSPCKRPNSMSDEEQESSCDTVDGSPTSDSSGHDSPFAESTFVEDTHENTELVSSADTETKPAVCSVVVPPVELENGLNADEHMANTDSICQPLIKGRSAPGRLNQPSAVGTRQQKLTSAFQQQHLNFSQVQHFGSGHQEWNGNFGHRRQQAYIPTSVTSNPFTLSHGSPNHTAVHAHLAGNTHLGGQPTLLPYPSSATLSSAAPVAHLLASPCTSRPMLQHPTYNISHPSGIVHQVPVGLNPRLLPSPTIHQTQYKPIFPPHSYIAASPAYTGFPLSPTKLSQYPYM
# [28] = molecular target: DAPK1 (Homo sapiens, UniProt P53355)
# [29] = molecular target: ROCK1 (Homo sapiens, UniProt Q13464)
# [30] = molecular target: MARK2 (Homo sapiens, UniProt Q7KZI7)
# [31] = molecular target: CSK (Homo sapiens, UniProt P41240)
# Sequence of CSK (P41240 whole entry): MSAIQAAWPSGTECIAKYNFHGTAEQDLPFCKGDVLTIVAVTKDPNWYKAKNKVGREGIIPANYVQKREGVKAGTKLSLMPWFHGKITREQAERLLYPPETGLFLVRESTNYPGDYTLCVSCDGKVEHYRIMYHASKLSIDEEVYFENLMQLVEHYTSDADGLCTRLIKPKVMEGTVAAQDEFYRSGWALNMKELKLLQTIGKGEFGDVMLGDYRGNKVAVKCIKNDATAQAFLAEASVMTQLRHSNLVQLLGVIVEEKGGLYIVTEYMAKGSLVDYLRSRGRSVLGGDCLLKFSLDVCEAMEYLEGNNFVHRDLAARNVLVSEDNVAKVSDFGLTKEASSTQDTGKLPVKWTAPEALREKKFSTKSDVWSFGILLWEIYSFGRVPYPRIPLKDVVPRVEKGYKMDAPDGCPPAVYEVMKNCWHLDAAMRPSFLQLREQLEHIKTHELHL
# Sequence of PKCb (P05771 whole entry): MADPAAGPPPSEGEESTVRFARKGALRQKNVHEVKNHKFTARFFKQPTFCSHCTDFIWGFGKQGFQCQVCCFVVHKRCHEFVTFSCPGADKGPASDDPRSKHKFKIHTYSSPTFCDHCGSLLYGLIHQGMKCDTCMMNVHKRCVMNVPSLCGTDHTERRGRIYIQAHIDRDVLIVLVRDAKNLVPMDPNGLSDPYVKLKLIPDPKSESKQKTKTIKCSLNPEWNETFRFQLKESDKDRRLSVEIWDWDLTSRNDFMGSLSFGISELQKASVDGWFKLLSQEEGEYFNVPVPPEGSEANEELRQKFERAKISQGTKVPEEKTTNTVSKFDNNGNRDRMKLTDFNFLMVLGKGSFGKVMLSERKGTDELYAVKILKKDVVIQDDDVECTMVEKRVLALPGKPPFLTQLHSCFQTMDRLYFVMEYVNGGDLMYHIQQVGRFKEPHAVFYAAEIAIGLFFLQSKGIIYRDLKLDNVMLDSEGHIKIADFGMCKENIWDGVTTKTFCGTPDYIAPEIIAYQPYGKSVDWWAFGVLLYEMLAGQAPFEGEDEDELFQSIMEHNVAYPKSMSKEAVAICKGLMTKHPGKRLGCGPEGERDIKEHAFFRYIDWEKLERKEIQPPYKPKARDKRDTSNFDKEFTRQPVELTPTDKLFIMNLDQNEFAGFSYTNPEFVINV
smiles,measurement,setting,value
"O=C1NCCCCCNc2nc(c3ccccc3n2)Nc2cc1[nH]n2 [21c, (Z)-3^1H-2,5,11-triaza-1(4,2)-quinazolina-3(3,5)-pyrazolacycloundecaphan-4-one]","21c Remaining activity, percent of control [%]",[1],96.5%
same,"21c Remaining activity, percent of control [%]",[2],104.0%
same,"21c Remaining activity, percent of control [%]",[3],115.1%
same,"21c Remaining activity, percent of control [%]",[4],56.6%
same,"21c Remaining activity, percent of control [%]",[5],88.9%
same,"21c Remaining activity, percent of control [%]",[6],82.5%
same,"21c Remaining activity, percent of control [%]",[7],98.4%
same,"21c Remaining activity, percent of control [%]",[8],86.3%
same,"21c Remaining activity, percent of control [%]",[9],101.3%
same,"21c Remaining activity, percent of control [%]",[10],93.4%
same,"21c Remaining activity, percent of control [%]",[11],91.4%
same,"21c Remaining activity, percent of control [%]",[12],84.0%
same,"21c Remaining activity, percent of control [%]",[13],94.1%
same,"21c Remaining activity, percent of control [%]",[14],79.0%
same,"21c Remaining activity, percent of control [%]",[15],93.9%
same,"21c Remaining activity, percent of control [%]",[16],118.7%
same,"21c Remaining activity, percent of control [%]",[17],97.0%
same,"21c Remaining activity, percent of control [%]",[18],83.6%
same,"21c Remaining activity, percent of control [%]",[19],81.8%
same,"21c Remaining activity, percent of control [%]",[20],99.7%
same,"21c Remaining activity, percent of control [%]",[21],99.3%
same,"21c Remaining activity, percent of control [%]",[22],109.6%
same,"21c Remaining activity, percent of control [%]",[23],79.1%
same,"21c Remaining activity, percent of control [%]",[24],96.0%
same,"21c Remaining activity, percent of control [%]",[25],93.3%
same,"21c Remaining activity, percent of control [%]",[26],87.2%
same,"21c Remaining activity, percent of control [%]",[27],90.8%
same,"21c Remaining activity, percent of control [%]",[28],94.0%
same,"21c Remaining activity, percent of control [%]",[29],98.4%
same,"21c Remaining activity, percent of control [%]",[30],98.8%
same,"21c Remaining activity, percent of control [%]",[31],73.5%

# Source: doi:10.1101/2023.10.20.563248v1 (biorxiv, 2023)
